“And” between values parts separate entries of the source, which are not always exact repeats. Identical values can stand only once.
Experiment: solvent given as SMILES

SMILES: CCOC(=O)C1=CN(Cc2ccccc2)C=C(C(=O)OCC)C1
- absorption maximum (in C1CCOC1): 367 nm
- absorption maximum (in CO): 371 nm

SMILES: CC1=CC(/C=C/c2ccc3ccc4cccc5ccc2c3c45)=[N+]2C1=C(c1ccccc1)c1c(C)cc(/C=C/c3ccc4ccc5cccc6ccc3c4c56)n1[B-]2(F)F
- absorption maximum (in CC1CCCO1): 691 nm

SMILES: CC1=N/C(=C\c2ccc(N(C)C)cc2)C(=O)N1C
- absorption maximum (in C1CCCCC1): 405 nm
- absorption maximum (in C1CCOC1): 419 nm
- absorption maximum (in CC#N): 422 nm
- absorption maximum (in CO): 435 nm
- absorption maximum (in CS(C)=O): 434 nm
- absorption maximum (in ClCCl): 428 nm
- absorption maximum (in O): 446 nm

SMILES: C(=C(c1ccccc1)c1ccccc1)c1ccc(-c2ccc(C=C(c3ccccc3)c3ccccc3)cc2)cc1
- absorption maximum (in C1CCOC1): 351 nm

SMILES: COc1ccc2c(c1)c(=O)c1ccccc1n2CCCCCC(=O)O
- absorption maximum (in O): 422 nm

SMILES: CCOc1cc(C=C2c3ccccc3-c3ccccc32)c(OCC)cc1C=C1c2ccccc2C=Cc2ccccc21
- absorption maximum (in C1CCOC1): 395 nm

SMILES: Cc1ccc2c3ccc(C)cc3c3cc4c(C)cc(=O)oc4cc3c2c1
- absorption maximum (in ClC(Cl)Cl): 386 nm

SMILES: O=Cc1ccc(-c2ccc(-c3nc4ccccc4s3)c(O)c2)o1
- absorption maximum (in ClCCl): 373 nm
- absorption maximum (in O): 326 nm

SMILES: CCCCCCN1C(=O)c2cccc3c(-c4scc5c4OCCO5)ccc(c23)C1=O
- absorption maximum (in ClC(Cl)Cl): 390 nm

SMILES: CN1/C(=C/C=C(/C=C/c2sc3ccccc3[n+]2C)c2ccc(C(F)(F)F)cc2)Sc2ccccc21
- absorption maximum (in CCO): 646 nm
- absorption maximum (in CO): 643 nm
- absorption maximum (in CS(C)=O): 652 nm
- absorption maximum (in O): 639 nm

SMILES: c1ccc(-c2nc(-c3ccccc3)c(-c3ccccc3)[nH]2)cc1
- absorption maximum (in CC#N): 311.5 nm and 312 nm
- absorption maximum (in CO): 311.5 nm

SMILES: CCOC(=O)c1c2c3c(ccc(C)c3c3cc4ccccc4cc13)N(C)C2=O
- absorption maximum (in CC#N): 404 nm

SMILES: COc1cc2sc3cc(OC)c(F)cc3c(=O)c2cc1F
- absorption maximum (in CS(C)=O): 316 nm

SMILES: CCN(CC)c1ccc2cc(-c3cn4cc5ccccc5cc4n3)c(=O)oc2c1
- absorption maximum (in ClC(Cl)Cl): 434 nm

SMILES: COc1ccc2c(c1)-c1nc(-c3ccccc3)c3ccccc3[n+]1[B-](F)(F)O2
- absorption maximum (in Cc1ccccc1): 434 nm

SMILES: C(=C\c1nc2ccccc2[nH]1)/c1ccc(-c2nc3c4cccnc4c4ncccc4c3[nH]2)cc1
- absorption maximum (in C1CCOC1): 381 nm
- absorption maximum (in CC#N): 376 nm
- absorption maximum (in CO): 375 nm
- absorption maximum (in ClCCl): 382 nm

SMILES: CCN(CC)c1ccc2n1[B-](F)(F)[N+]1=CC(/C=C/C(=O)OC(C)(C)C)=CC1=C2c1c(C)cc(C)cc1C
- absorption maximum (in ClCCl): 478 nm

SMILES: COc1ccc(C#Cc2c3ccccc3c(C#Cc3ccc(OC)cc3)c3cc4ccccc4cc23)cc1
- absorption maximum (in ClCCl): 559 nm

SMILES: O=S1(=O)c2ccc(-c3ccc(N(c4ccccc4)c4ccccc4)cc3)cc2C2(c3ccccc3-c3ccccc32)c2cc(-c3ccc(N(c4ccccc4)c4ccccc4)cc3)ccc21
- absorption maximum (in ClCCl): 363 nm

SMILES: COc1ccc2c(c1)sc1[n+]2[B-](F)(F)OC(c2ccc(N(C)C)cc2)=N1
- absorption maximum (in C1CCOC1): 430 nm
- absorption maximum (in CC#N): 426 nm
- absorption maximum (in CC(C)=O): 431 nm
- absorption maximum (in Cc1ccccc1): 427 nm
- absorption maximum (in ClCCl): 430 nm

SMILES: N#Cc1nn(-c2ccc(F)cc2)nc1N1CCCC1
- absorption maximum (in CC#N): 340 nm

SMILES: Cc1nc2c(ccc3ccc(O)cc32)oc1=O
- absorption maximum (in c1ccccc1): 370 nm

SMILES: CSc1sc(C(C)=O)c2nn[nH]c(=O)c12
- absorption maximum (in C1CCOC1): 392.5 nm
- absorption maximum (in CC#N): 393 nm
- absorption maximum (in CCO): 397 nm
- absorption maximum (in CN(C)C=O): 404 nm
- absorption maximum (in CO): 396 nm
- absorption maximum (in CS(C)=O): 400.5 nm

SMILES: Cc1cc2c(cc1C)NC(=O)CC(=O)N2
- absorption maximum (in CS(C)=O): 297 nm

SMILES: c1ccc(-c2ccc(-c3cc(-c4ccccn4)nc(-c4ccccn4)c3)cc2)cc1
- absorption maximum (in ClCCl): 291 nm

SMILES: O=C1c2cccc3c(-n4c5ccccc5c5ccccc54)ccc(c23)C(=O)N1C1CCCCC1
- absorption maximum (in C1CCOC1): 407 nm
- absorption maximum (in CCCCCC): 399 nm
- absorption maximum (in ClC(Cl)Cl): 402 nm
- absorption maximum (in ClCCl): 410 nm

SMILES: O=c1c2ccccc2nc2n1[B-](F)(F)[n+]1ccccc1-2
- absorption maximum (in CC#N): 334 nm
- absorption maximum (in ClCCl): 353 nm

SMILES: c1ccc2c(c1)OB1Oc3ccccc3-c3c1c-2c1c2c3-c3ccccc3OB2Oc2ccccc2-1
- absorption maximum (in ClCCl): 405 nm

SMILES: CC1(C)c2ccccc2-c2sc3ccccc3c21
- absorption maximum (in ClCCl): 330 nm

SMILES: CCC1=C(C)C(=O)n2c1cc1c(C)c(CCC(=O)OC)c(C)n1c2=O
- absorption maximum (in CC#N): 420 nm
- absorption maximum (in CC(C)=O): 420 nm
- absorption maximum (in CO): 424 nm
- absorption maximum (in CS(C)=O): 425 nm
- absorption maximum (in ClC(Cl)Cl): 427 nm
- absorption maximum (in c1ccccc1): 420 nm

SMILES: O=S(=O)(/N=c1\oc2cccc3c4c(-c5ccccc5)oc5cccc(c(c1-c1ccccc1)c23)c54)C(F)(F)F
- absorption maximum (in CCCCCC): 458 nm
- absorption maximum (in CO): 456 nm
- absorption maximum (in CS(C)=O): 463 nm
- absorption maximum (in ClC(Cl)Cl): 460 nm
- absorption maximum (in ClCCl): 463 nm

SMILES: COc1cc(C)c2c(c1C)OC(=O)c1c(C)c(Cl)c(O)c(Cl)c1O2
- absorption maximum (in ClC(Cl)Cl): 342 nm

SMILES: CCN(CC)c1cc(NC(C)=O)c(/N=N/c2cc3c(=O)[nH][nH]c(=O)c3cc2[N+](=O)[O-])cc1OC
- absorption maximum (in CC(=O)O): 556 nm
- absorption maximum (in CN(C)C=O): 550 nm
- absorption maximum (in CS(C)=O): 553 nm

SMILES: c1ccc2cc3c(cc2c1)-c1cccc2c1c-3cc1ccccc12
- absorption maximum (in CCCCCCC): 400 nm

SMILES: C1=C(c2ccc(-c3cccs3)s2)CCC1
- absorption maximum (in C1CCOC1): 345 nm
- absorption maximum (in CC#N): 342 nm
- absorption maximum (in CCCCCC): 341 nm
- absorption maximum (in CCO): 341 nm
- absorption maximum (in OCCOCCO): 347 nm
- absorption maximum (in c1ccncc1): 348 nm

SMILES: COc1cc2cc(OC)c(C#Cc3ccc([N+](=O)[O-])cc3)cc2cc1C#Cc1ccc([N+](=O)[O-])cc1
- absorption maximum (in C1CCOC1): 361 nm
- absorption maximum (in ClC(Cl)Cl): 362 nm
- absorption maximum (in ClCCl): 360 nm

SMILES: O=S(=O)([O-])c1ccccc1/C=C/c1ccc(-c2nnc(-c3ccc(/C=C/c4ccccc4S(=O)(=O)[O-])cc3)o2)cc1
- absorption maximum (in C1CCOC1): 346 nm
- absorption maximum (in CC(C)=O): 344 nm
- absorption maximum (in CN(C)C=O): 348 nm

SMILES: Cc1ccc2nc3cc4c(cc3c(-c3ccccc3)c2c1)[Si](C)(C)O[Si]4(C)C
- absorption maximum (in ClCCl): 370 nm

SMILES: CC1=[N+]2C(=C(c3ccc(C#N)cc3)c3ccc(C)n3[B-]2(F)F)C=C1
- absorption maximum (in C1CCCCC1): 517 nm
- absorption maximum (in C1CCOC1): 516 nm
- absorption maximum (in CC#N): 512 nm
- absorption maximum (in CCOC(C)=O): 513 nm
- absorption maximum (in CO): 513 nm
- absorption maximum (in Cc1ccccc1): 519 nm
- absorption maximum (in ClC(Cl)Cl): 519 nm

SMILES: Cc1cc(-c2ccc(-c3n(C)c4ccccc4[n+]3C)cc2)ccc1-c1ccc(-c2n(C)c3ccccc3[n+]2C)cc1
- absorption maximum (in O): 299 nm

SMILES: C(=C\c1ccc(-c2cccc3ccccc23)s1)/c1cccs1
- absorption maximum (in ClCCl): 370 nm

SMILES: COc1ccc2c(c1)c1ccc3cccc4c5cccc6oc(=O)c2c(c65)c1c34
- absorption maximum (in C1CCOC1): 425 nm

SMILES: [O-][n+]1c(/C=C/c2ccc3ccccc3c2)nc(N2CCOCC2)c2c1CCCC2
- absorption maximum (in ClCCl): 400 nm

SMILES: CC[N+]1(CC)CN2C(C)=CC(C)=C(C(=O)[O-])C2=N1
- absorption maximum (in CN(C)C=O): 361 nm
- absorption maximum (in O): 338 nm

SMILES: COc1ccc(-c2cnc(-c3ccccc3)o2)cc1OC
- absorption maximum (in ClCCl): 322 nm

SMILES: CN(C)C1=Nc2cccc3cccc1c23
- absorption maximum (in CC#N): 427 nm

SMILES: CC(C)(C)c1ccc2c(c1)[nH]c1c3[nH]c4cc(C(C)(C)C)ccc4c3c3nsnc3c21
- absorption maximum (in CN(C)C=O): 412 nm
- absorption maximum (in Cc1ccccc1): 406 nm
- absorption maximum (in ClCCl): 411 nm

SMILES: CN(C)c1ccc2c(C(=O)NCc3ccccc3)cc(C(=O)[O-])nc2c1
- absorption maximum (in CCO): 403 nm

SMILES: CC(C)(C)c1cc(-c2c3cccc4c5cccc6c(-c7cc(C(C)(C)C)cc(C(C)(C)C)c7)c7cccc8c9cccc2c9c(c34)c(c65)c78)cc(C(C)(C)C)c1
- absorption maximum (in Cc1ccccc1): 687 nm

SMILES: CCCCCC(=O)c1ccc2c3c(sc2c1)-c1ccccc1P3(=O)c1ccccc1 (centres undefined)
- absorption maximum (in ClCCl): 359 nm and 375 nm

SMILES: O=c1c2cc(S(=O)(=O)O)ccc2[nH]c2ccc(S(=O)(=O)O)cc12
- absorption maximum (in CS(C)=O): 399 nm
- absorption maximum (in O): 396 nm

SMILES: CC1=CC(c2ccc(N(C)C)cc2)=[N+]2C1=Nc1c(C)cc(-c3ccc(N(C)C)cc3)n1[B-]2(F)F
- absorption maximum (in C1CCOC1): 744 nm
- absorption maximum (in CS(C)=O): 774 nm
- absorption maximum (in Cc1ccccc1): 734 nm

SMILES: COC(=O)C(Cc1ccc2oc(-c3ccc(N(C)C)cc3)nc2c1)NC(=O)OC(C)(C)C (centres undefined)
- absorption maximum (in C1CCCCC1): 335.1 nm
- absorption maximum (in C1CCOC1): 341.8 nm
- absorption maximum (in C1COCCO1): 340.8 nm
- absorption maximum (in CC1CCCO1): 338.9 nm
- absorption maximum (in CC1COC(=O)O1): 345.1 nm
- absorption maximum (in CC#N): 343.39 nm
- absorption maximum (in CC(C)=O): 343.1 nm
- absorption maximum (in CC(C)CC(C)(C)C): 333 nm
- absorption maximum (in CC(C)CO): 344.49 nm
- absorption maximum (in CC(C)O): 343.9 nm
- absorption maximum (in CC(C)OC(C)C): 339.5 nm
- absorption maximum (in CC(O)CO): 349.5 nm
- absorption maximum (in CCC(C)CC): 333 nm
- absorption maximum (in CCCCC): 332.9 nm
- absorption maximum (in CCCCCC): 333.6 nm
- absorption maximum (in CCCCCCCCC): 334.9 nm
- absorption maximum (in CCCCCCCCCC): 334.9 nm
- absorption maximum (in CCCCCCCO): 345.7 nm
- absorption maximum (in CCCCCCO): 345.6 nm
- absorption maximum (in CCCCCO): 342.7 nm
- absorption maximum (in CCCCO): 345.9 nm
- absorption maximum (in CCO): 346.6 nm
- absorption maximum (in CCOC(C)=O): 339.7 nm
- absorption maximum (in CCOCC): 338.2 nm
- absorption maximum (in CN(C)C=O): 346.5 nm
- absorption maximum (in CO): 346.5 nm
- absorption maximum (in COCCOC): 343.9 nm
- absorption maximum (in CS(C)=O): 348.5 nm
- absorption maximum (in Cc1ccccc1): 342 nm
- absorption maximum (in Cc1ccccc1C): 341.4 nm
- absorption maximum (in ClC(Cl)Cl): 344.6 nm
- absorption maximum (in ClCCl): 344.49 nm
- absorption maximum (in NC=O): 349.41 nm
- absorption maximum (in OC1CCCCC1): 346.5 nm
- absorption maximum (in OCCO): 351.9 nm
- absorption maximum (in c1ccccc1): 342.99 nm

SMILES: COc1cccc2cc(C)c3c4ccccc4n(C)c3c12
- absorption maximum (in ClCCl): 370 nm

Source: the Deep4Chem optical property database
